How the values were obtained:
[1] = test system: EMT-6 mouse mammary tumour cells; experiment: Cellular photoinactivation, MTT cell survival after red light; format: cell-based; conditions: 1% FBS, red light 660-700 nm
Source text: Among the second-generation photosensitizers (PS) developed for the treatment of neoplastic diseases by photodynamic therapy (PDT) (Kessel, 1996; Ochsner, 1997), metallo-phthalocyanines (MePc) have been proposed (Spikes, 1986; van Lier, 1990; Rosenthal, 1991) as an alternative to Photofrin (PII), the only PS currently approved for clinical use. Their stronger absorption in the red part of the spectrum (molar extinction coefficient, […] at 675 nm), where the depth of light penetration in tissues is twice that obtained at 630 nm with PII (Svaasand, 1984), together with their chemical homogeneity and their lower potential to induce cutaneous photosensitivity (Roberts et al, 1989; Tralau et al, 1989) are major advantages over PII. […] The potential of the water-soluble aluminium sulphophthalocyanine (AlPcS) to generate activated oxygen species (Sharman et al, 1999) and to induce a photo- dynamic response in vivo has been widely evaluated, and a mixture of AlPcS bearing 2-4 sulphonato groups per Pc (Photosense) is used extensively and successfully in clinical PDT in Russia (Zharkova et al, 1994). […] Their photodynamic activities were evaluated in vitro against the EMT-6 mouse mammary tumour cells and in vivo against the EMT-6 and the colon carcinoma Colo-26 tumours implanted intradermally in Balb/c mice. […]

[2] = Biodistribution and plasma clearance after i.v. injection in EMT-6 tumour-bearing mice; format: in vivo
Source text: (§1) Among the second-generation photosensitizers (PS) developed for the treatment of neoplastic diseases by photodynamic therapy (PDT) (Kessel, 1996; Ochsner, 1997), metallo-phthalocyanines (MePc) have been proposed (Spikes, 1986; van Lier, 1990; Rosenthal, 1991) as an alternative to Photofrin (PII), the only PS currently approved for clinical use. Their stronger absorption in the red part of the spectrum (molar extinction coefficient, […] at 675 nm), where the depth of light penetration in tissues is twice that obtained at 630 nm with PII (Svaasand, 1984), together with their chemical homogeneity and their lower potential to induce cutaneous photosensitivity (Roberts et al, 1989; Tralau et al, 1989) are major advantages over PII. Unsubstituted MePc are not soluble in physiological solvents and their in vivo administration relies upon their incorporation into carriers, such as the liposomal formulation of ZnPc (Isele et al, 1995), or their chemical conversion into water-soluble dyes by the attachment of selected substituents onto the benzene rings of the macrocycle. An inverse relationship was related between the degree of substitution by sulphonato groups of MePc and their hydrophobicity and photodynamic activities, both at the cellular level and in tumour-bearing mice (Brasseur et al, 1987, 1988; Paquette et al, 1988; Berg et al, 1989; Chan et al, 1990, 1991; Margaron et al, 1996a). The potential of the water-soluble aluminium sulphophthalocyanine (AlPcS) to generate activated oxygen species (Sharman et al, 1999) and to induce a photo- dynamic response in vivo has been widely evaluated, and a mixture of AlPcS bearing 2-4 sulphonato groups per Pc (Photosense) is used extensively and successfully in clinical PDT in Russia (Zharkova et al, 1994). […] The unsubstituted AlClPc has, however, attracted less attention even though it has been shown that this compound formulated as a Cremophor emulsion was preferentially retained by a gliosarcoma and was able to induce tumour necrosis in this model (Dereski et al, 1994). […] However, Cremophor oil is known to induce unwanted side-effects in patients (Dye and Watkins, Water-soluble aluminium phthalocyaninepolymer conjugates for PDT: photodynamic activities and pharmacokinetics in tumour-bearing mice N Brasseur, R Ouellet, C La Madeleine and JE van Lier MRC Group in the Radiation Sciences, Faculty of Medicine, Universite de Sherbrooke, Sherbrooke, Quebec, J1H 5N4, Canada Summary The potential use of unsubstituted aluminium phthalocyanine (AlClPc) as a sensitizer for photodynamic therapy (PDT) of cancer has not been fully exploited in spite of its higher efficiency as compared to the sulphonated derivatives. This is largely due to the strong hydrophobic character of AlClPc which renders the material difficult to formulate for in vivo administration. We prepared two water-soluble derivatives of AlClPc by axial coordination of polyethyleneglycol (PEG, MW 2000) or polyvinylalcohol (PVA, MW 13 000-23 000) to the central aluminium ion. Their photodynamic activities were evaluated in vitro against the EMT-6 mouse mammary tumour cells and in vivo against the EMT-6 and the colon carcinoma Colo-26 tumours implanted intradermally in Balb/c mice. Pharmacokinetics were studied in the EMT-6 tumour-bearing mice. […] All three dye preparations induced complete EMT-6 tumour regression in 75-100% of animals at a low drug dose ([…] ) following PDT (400 J cm-2 , 650-700 nm) at 24 h pi. Complete tumour regression in the Colo-26 tumour model was obtained in 30% of mice at a dose of […] . In the non-cured animals, AlPc-PVA induced the most significant tumour growth delay. […] Moreover, in the case of the polyvinylalcohol derivative, axial coordination confers advantageous pharmacokinetics to AlPc, which makes this photosensitizer a valuable, water soluble candidate drug for clinical PDT of cancer. […]

Colo-26 tumour = experiment: Photodynamic therapy of the Colo-26 tumour implanted i.d. in Balb/c mice; format: in vivo; design: Oedema observed 24 h after PDT: key to the marks not given beside the values
Source text: as §1

EMT-6 tumour = conditions: 0.25 μmol kg-1 i.v., PDT 24 h p.i., 400 J cm-2, ref Chan et al (1997); cited from earlier work
[3] = 6 h after i.v. 2 μmol kg-1, n = 4
[4] = 24 h after i.v. 2 μmol kg-1, n = 4
[5] = 48 h after i.v. 2 μmol kg-1, n = 4
[6] = 168 h after i.v. 2 μmol kg-1, n = 4
[7] = Colo-26 tumour, 2 μmol kg-1 i.v., PDT 24 h p.i., 400 J cm-2

[Cl][Al]1[n]2c3c4ccccc4c2N=C2N=C(N=c4c5ccccc5c([n]41)=NC1=NC(=N3)c3ccccc31)c1ccccc12 [AlClPc, aluminium phthalocyanine]
light dose required to kill 90% of cells (LD90) ([1]; 1 h incubation, 10 mW cm-2, max 36 J cm-2): 13.5 J cm-2
light dose required to kill 90% of cells (LD90) ([1]; 24 h incubation, 10 mW cm-2): 4.5 J cm-2
retention by the liver ([2]; 1-week pi, i.v. 2 μmol kg-1): 73%
Tumour-to-plasma ratio [2, 3]: 0.4
Tumour-to-skin ratio [2, 3]: 3.5
Tumour-to-tumour skin ratio [2, 3]: 1.0
Tumour-to-muscle ratio [2, 4]: 16.9
Tumour-to-plasma ratio [2, 4]: >>
Tumour-to-skin ratio [2, 4]: 5.3
Tumour-to-tumour skin ratio [2, 4]: 1.0
Tumour-to-muscle ratio [2, 5]: 19.5
Tumour-to-plasma ratio [2, 5]: >>
Tumour-to-skin ratio [2, 5]: 3.3
Tumour-to-tumour skin ratio [2, 5]: 0.7
Tumour-to-muscle ratio [2, 6]: >>
Tumour-to-plasma ratio [2, 6]: >>
Tumour-to-skin ratio [2, 6]: 2.0
Tumour-to-tumour skin ratio [2, 6]: 0.9
plasma half-life ([2]; i.v. 2 μmol kg-1, EMT-6 tumour-bearing mice): 2.6 h
damage to leg muscle (Colo-26 tumour; 2 μmol kg-1, PDT 24 h p.i.): did not induce damage to leg muscle
tumour regrowth delay relative to controls (Colo-26 tumour; Colo-26 tumour, 2 μmol kg-1, non-cured mice): 1.5 times that of the controls
Tumour response, Regression (flat and necrotic within 3-5 days after PDT) (Colo-26 tumour; Colo-26 tumour, 2 μmol kg-1 i.v., PDT 24 h p.i., 200 mW cm-2, 400 J cm-2): 80 % of mice
Oedema observed 24 h after PDT (Colo-26 tumour; [7]): ++
Tumour response, Cure (complete tumour regression at 30 days minimum) (Colo-26 tumour; [7]): 30 % of mice
Regrowth to 20 Vo (time for tumour to reach 20 times the volume at the time of PDT) (Colo-26 tumour; Colo-26 tumour, 2 μmol kg-1 i.v., PDT 24 h p.i., non-cured mice only, controls 15.0 (0.3)): 23.5 (2.1) days (s.e.m.)
Oedema observed 24 h after PDT (EMT-6 tumour): +
Tumour response, Cure (complete tumour regression at 21 days) (EMT-6 tumour): 100 % of mice
Tumour response, Regression (flat and necrotic within 3-5 days after PDT) (EMT-6 tumour): 100 % of mice

— PMC2363166, “Water-soluble aluminium phthalocyanine–polymer conjugates for PDT: photodynamic activities and pharmacokinetics in tumour-bearing mice” (British Journal of Cancer, 1999)
